In ChEMBL document CHEMBL1201862, “PubChem BioAssay data set” (2004):
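Where inhibition never reached the appropriate level, the endpoint shown equals the highest concentration tested. Otherwise, values were interpolated linearly from a five-concentration, 48-hour dose response in 96-well plates. GI50 = concentration required for 50% inhibition of growth.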 Activity calls are given as the source filed them. Cut-off read from the data, not from the text of the source: active = GI50 up to about 1.1 µM and inactive = higher.

How the values were obtained:
Test in all cases: NCI anticancer screen, dose series, 48 h
SK-MEL-2 = test system: SK-MEL-2
NCI-H460 = test system: NCI-H460
MOLT-4 = test system: MOLT-4
NCI-H522 = test system: NCI-H522
SK-MEL-28 = test system: SK-MEL-28
K562 = test system: K562
SW-620 = test system: SW-620
U-251 = test system: U-251
M14 = test system: M14
NCI-H23 = test system: NCI-H23
SNB-19 = test system: SNB-19
SF-295 = test system: SF-295
NCI/ADR-RES = test system: NCI/ADR-RES
OVCAR-5 = test system: OVCAR-5
CCRF-CEM = test system: CCRF-CEM
EKVX = test system: EKVX
HCT-116 = test system: HCT-116
LOX IMVI = test system: LOX IMVI
OVCAR-8 = test system: OVCAR-8
UACC-257 = test system: UACC-257

Compound | GI50 (SK-MEL-2) | GI50 (NCI-H460) | GI50 (MOLT-4) | GI50 (NCI-H522) | GI50 (SK-MEL-28) | GI50 (K562) | GI50 (SW-620) | GI50 (U-251) | GI50 (M14) | GI50 (NCI-H23) | GI50 (SNB-19) | GI50 (SF-295) | GI50 (NCI/ADR-RES) | GI50 (OVCAR-5) | GI50 (CCRF-CEM) | GI50 (EKVX) | GI50 (HCT-116) | GI50 (LOX IMVI) | GI50 (OVCAR-8) | GI50 (UACC-257)
COc1cc([N+](=O)[O-])c(S(=O)(=O)[O-])cc1-[n+]1nc(C(=O)Nc2ccccc2)nn1-c1ccc([N+](=O)[O-])c(S(=O)(=O)O)c1 | > 100 µM (inactive) | > 100 µM (inactive) | > 100 µM (inactive) | > 100 µM (inactive) | > 100 µM (inactive) | > 100 µM (inactive) | > 100 µM (inactive) | > 100 µM (inactive) | > 100 µM (inactive) | > 100 µM (inactive) | > 100 µM (inactive) | > 100 µM (inactive) | > 100 µM (inactive) | > 100 µM (inactive) | > 100 µM (inactive) | > 100 µM (inactive) | > 100 µM (inactive) |  |  | 
Cc1csc(NC23CC4CC(CC(C4)C2)C3)[n+]1C(P(=O)([O-])O)P(=O)(O)O (stereo unspecified) |  | > 100 µM (inactive) | > 100 µM (inactive) | > 100 µM (inactive) | > 100 µM (inactive) | > 100 µM (inactive) | > 100 µM (inactive) | > 100 µM (inactive) | > 100 µM (inactive) | > 100 µM (inactive) | > 100 µM (inactive) | > 100 µM (inactive) | > 100 µM (inactive) | > 100 µM (inactive) | > 100 µM (inactive) | > 100 µM (inactive) | > 100 µM (inactive) | > 100 µM (inactive) | > 100 µM (inactive) | > 100 µM (inactive)
Clc1ccc(-c2cc(-c3cc4cc(Br)ccc4nc3Cl)on2)cc1 | 9.71 µM (inactive) | 10.1 µM (inactive) | 14.1 µM (inactive) | 10.2 µM (inactive) | 9.62 µM (inactive) | 15.1 µM (inactive) | 10.4 µM (inactive) |  | 12.5 µM (inactive) | 17.1 µM (inactive) | 26.7 µM (inactive) | 11.3 µM (inactive) | 14.9 µM (inactive) | 1.4 µM (inactive) | 11.5 µM (inactive) | 4.93 µM (inactive) | 12.2 µM (inactive) | 10 µM (inactive) | 18.7 µM (inactive) | 13 µM (inactive)
CCCCCCNC(=O)c1cc(CCc2cc(O)ccc2O)ccc1O | 2.74 µM (inactive) | 8.57 µM (inactive) | 1.93 µM (inactive) | 0.916 µM (active) | 2.74 µM (inactive) | 2.38 µM (inactive) | 7.66 µM (inactive) | 2.3 µM (inactive) | 6.05 µM (inactive) | 7.89 µM (inactive) | 10.7 µM (inactive) | 14.1 µM (inactive) | 3.61 µM (inactive) | 7.05 µM (inactive) | 1.92 µM (inactive) | 5.75 µM (inactive) |  | 4.67 µM (inactive) | 3.56 µM (inactive) | 2.2 µM (inactive)
O=C(NNC(=O)c1cc2ccccc2[nH]1)c1cc2ccccc2[nH]1 | > 100 µM (inactive) | > 100 µM (inactive) | > 100 µM (inactive) | > 100 µM (inactive) | > 100 µM (inactive) | 80 µM (inactive) | > 100 µM (inactive) | > 100 µM (inactive) | > 100 µM (inactive) |  | > 100 µM (inactive) | > 100 µM (inactive) | > 100 µM (inactive) | > 100 µM (inactive) | > 100 µM (inactive) | > 100 µM (inactive) | > 100 µM (inactive) | > 100 µM (inactive) | > 100 µM (inactive) | > 100 µM (inactive)
COc1ccc(Cn2nc(OCc3ccccc3)c3cc([N+](=O)[O-])ccc32)cc1 | > 100 µM (inactive) | > 100 µM (inactive) | > 100 µM (inactive) | > 100 µM (inactive) | > 100 µM (inactive) | > 100 µM (inactive) | > 100 µM (inactive) |  | > 100 µM (inactive) | > 100 µM (inactive) | > 100 µM (inactive) | > 100 µM (inactive) | > 100 µM (inactive) | > 100 µM (inactive) | > 100 µM (inactive) |  |  | > 100 µM (inactive) | > 100 µM (inactive) | > 100 µM (inactive)
O=S(=O)(c1cnccc1N1CCN(CCO)CC1)N1CCCC1 | > 100 µM (inactive) | > 100 µM (inactive) |  | > 100 µM (inactive) | > 100 µM (inactive) | > 100 µM (inactive) | > 100 µM (inactive) | > 100 µM (inactive) | > 100 µM (inactive) | > 100 µM (inactive) | > 100 µM (inactive) | > 100 µM (inactive) | > 100 µM (inactive) | > 100 µM (inactive) |  | > 100 µM (inactive) | > 100 µM (inactive) | > 100 µM (inactive) | > 100 µM (inactive) | > 100 µM (inactive)
Cc1ccc2c(c1)SSSSS2 |  | 18.4 µM (inactive) | 30.5 µM (inactive) | 16.3 µM (inactive) | 17.1 µM (inactive) | 22.1 µM (inactive) | 15.1 µM (inactive) | 34.3 µM (inactive) | 21.3 µM (inactive) | 20.8 µM (inactive) | 20.6 µM (inactive) | 19.8 µM (inactive) | 25.4 µM (inactive) | 22.1 µM (inactive) | 4.1 µM (inactive) | 23.3 µM (inactive) | 14.3 µM (inactive) | 16.2 µM (inactive) | 21.9 µM (inactive) | 17.6 µM (inactive)
COC(=O)c1ccccc1/C=C1\Cc2ccc3ccccc3c2C1C (stereo unspecified) | > 100 µM (inactive) | > 100 µM (inactive) | 27.2 µM (inactive) | 16.6 µM (inactive) | > 100 µM (inactive) | 37.6 µM (inactive) | 93.3 µM (inactive) | > 100 µM (inactive) | 37.4 µM (inactive) |  | > 100 µM (inactive) | 70.8 µM (inactive) | 36 µM (inactive) | 13.2 µM (inactive) | 45.8 µM (inactive) | 37.7 µM (inactive) | 8.09 µM (inactive) | > 100 µM (inactive) | > 100 µM (inactive) | 48.9 µM (inactive)
Clc1ccc(OCc2nnc(CCCCCCCCc3nnc(COc4ccc(Cl)cc4)n3Nc3ccccc3)n2Nc2ccccc2)cc1 | 16.1 µM (inactive) | 2.71 µM (inactive) | 12.3 µM (inactive) | 2.82 µM (inactive) | 4.62 µM (inactive) | 0.343 µM (active) | 16.9 µM (inactive) | 23.5 µM (inactive) | 2.08 µM (inactive) | 18.2 µM (inactive) | 12.9 µM (inactive) | 0.145 µM (active) | 3.84 µM (inactive) | 2.74 µM (inactive) |  | 12.9 µM (inactive) | 4.44 µM (inactive) | 21.7 µM (inactive) | 30.4 µM (inactive) | 7.35 µM (inactive)
c1csc(-c2cc(-c3ccsc3)c(-c3cccs3)s2)c1 |  | 43.5 µM (inactive) | 30.1 µM (inactive) | 61.7 µM (inactive) | 41.3 µM (inactive) | 69.8 µM (inactive) | 74.3 µM (inactive) | 81.3 µM (inactive) | 56.1 µM (inactive) | 58.7 µM (inactive) | > 100 µM (inactive) | > 100 µM (inactive) | > 100 µM (inactive) | > 100 µM (inactive) | 28.8 µM (inactive) | 16 µM (inactive) | 29.8 µM (inactive) |  | > 100 µM (inactive) | 56.2 µM (inactive)
CC(C)c1nc2c(Cl)c3ncccc3cc2[nH]c1=O | > 100 µM (inactive) | 88.1 µM (inactive) | 29.6 µM (inactive) | 16.7 µM (inactive) | > 100 µM (inactive) | > 100 µM (inactive) | > 100 µM (inactive) | 73.3 µM (inactive) | > 100 µM (inactive) | 80.2 µM (inactive) | > 100 µM (inactive) | > 100 µM (inactive) | 37.8 µM (inactive) | > 100 µM (inactive) | 46.2 µM (inactive) | 9.71 µM (inactive) | > 100 µM (inactive) |  | 29.2 µM (inactive) | > 100 µM (inactive)
C/C(=N\Nc1nc2ccccc2n1C)c1cc2ccccc2cn1 | 0.805 µM (active) | 0.0653 µM (active) | < 0.01 µM (active) | < 0.01 µM (active) | 0.213 µM (active) | < 0.0135 µM (active) | < 0.0118 µM (active) | < 0.0275 µM (active) | < 0.0335 µM (active) | < 0.0172 µM (active) | 0.352 µM (active) | 0.144 µM (active) | < 0.0182 µM (active) |  | 0.0161 µM (active) | < 0.0111 µM (active) | < 0.01 µM (active) | 0.0305 µM (active) | < 0.0182 µM (active) | < 0.0105 µM (active)
C[N+](C)(C)CCOP(=O)([O-])OCCNC(=O)c1ccc2ccccc2c1 |  |  | > 100 µM (inactive) | > 100 µM (inactive) | > 100 µM (inactive) | > 100 µM (inactive) | > 100 µM (inactive) | > 100 µM (inactive) | > 100 µM (inactive) | > 100 µM (inactive) | > 100 µM (inactive) | > 100 µM (inactive) | 31.5 µM (inactive) | > 100 µM (inactive) | > 100 µM (inactive) | > 100 µM (inactive) | > 100 µM (inactive) | > 100 µM (inactive) | > 100 µM (inactive) | > 100 µM (inactive)
C/C(=N\NC1=NCCN1)c1cn(C2=NCCN2)nc1C | > 100 µM (inactive) | > 100 µM (inactive) |  | > 100 µM (inactive) | > 100 µM (inactive) | 59.6 µM (inactive) | > 100 µM (inactive) | > 100 µM (inactive) | > 100 µM (inactive) | > 100 µM (inactive) | > 100 µM (inactive) | > 100 µM (inactive) | > 100 µM (inactive) | > 100 µM (inactive) |  | > 100 µM (inactive) | > 100 µM (inactive) |  | > 100 µM (inactive) | > 100 µM (inactive)
